Laboratory results published in patent US20120122991A1, “METHOD FOR TREATING CANCER BY INCREASING AMP-ACTIVATED KINASE ACTIVITY” (Dana-Farber Cancer Institute, Inc., priority 2003, published 2012).

Test system: HeLa cells
Assay: Cell survival (MTT assay, phase contrast) of HeLa cells stably expressing vector, WT or KD LKB1
Assay type: cell-based, human
Settings: 2.5 mM AICAR, within 8 h
Description: Results are representative of four independent experiments. Cell viability was determined following AICAR or UV expressed as a percentage of untreated controls. Cell viability quantified by MTT assays run in triplicate on indicated HeLa stable cell lines treated with 2.5 mM AICAR or 50 j/cm^2 UV for 8 h. Results are representative of two independent experiments.
Kinase Assays and Cellular Analysis: AMPK kinase activity was measured using the SAMS peptide as previously described (7). LKB1 phosphorylation of AMPK was carried out in kinase buffer (50 mM Tris pH 7.5, 10 mM MgCl2, 1 mM DTT, 100 μM ATP) for 20 mins at 30° C. For immunopreciptations of active LKB1 kinase, Flag-tagged LKB1 was co-transfected with an equimolar amount of STRAD expression plasmid into HT1080 cells and immunoprecipitated using M2-agarose (Sigma) 24 h post-transfection in NP40 lysis buffer26. Before kinase assays, immunoprecipitated LKB1 was washed 3× in lysis buffer then 2× in kinase buffer. Soluble MBP-AMPK was added at 5 μg per kinase reaction. […]
To determine if LKB1 can mediate a biological response to a stimulus that activates the AMPKK/AMPK cascade we investigated whether LKB1 might modulate cell death under circumstances where AMPK would be activated. […] The extent of cell survival conferred by LKB1 reconstitution in the HeLa cells was quantified by MTT assay (FIG. 5b,c).

`NC(=O)c1ncn([C@@H]2O[C@H](CO)[C@@H](O)[C@H]2O)c1N` [AICAR, 5-aminoimidazole-4-carboxamide 1-β-D-ribofuranoside] was tested, and the cell death (vector control and kinase-dead LKB1 expressing HeLa cells) was “extensive cell death” and the cell viability (wild-type LKB1 expressing HeLa cells) was “nearly totally viable”.
